US20210308196A1, “COMPOSITIONS AND METHODS TO PROMOTE HOST DEFENSE AND STIMULATE, EXPAND, AND/OR RESET T CELL REPERTOIRES” (EVOLVE BIOSYSTEMS, INC., priority 2018, published 2021)

What was measured:
[1] = test system: fatty acid binding proteins (FABPs) and glutathione S-transferase (α-GST); assay: Urine FABPs and α-GST (MILLIPLEX MAP luminex assay); format: in vivo, human; conditions: treatment group
From the text: Glutathione S-transferases (α-GST) are enzymes present predominantly in liver, kidney and intestinal epithelial cells that are responsible for detoxification of intracellular toxins through conjugation to glutathione. In states of increased intestinal inflammation and permeability, plasma levels of (α-GST) are a peripheral marker of intestinal epithelial cell injury.

peanut extract allergy = assay: Prevention of murine peanut allergy; format: in vivo, mouse
From the text: Germ-free mouse pups are weaned 3-4 weeks after birth and put on a polysaccharide-free diet that is enriched for Vitamin A. As soon as the mouse pups are weaned, they are gavaged with a dysbiotic (no Bifidobacterium sp. and high proteobacteria) human infant microbiome at Day 1 of the experiment. The mice are divided into 4 groups: control, control plus LNnT, B. infantis, and B. infantis plus LNnT. Mice are given the composition for 21 days. All Groups receive B. infantis or placebo every 3 days by gavage. The LNnT or placebo is added to the drinking water for 21 days. Mice receive intragastric gavage of peanut extract on weekly at 5 mg/mouse for sensitization and then 25 mg/mouse at week 5 for challenge with 10 μg of Cholera toxin to elicit anaphylaxis. Control animals receive intragastric gavage with vehicle only. Anaphylaxis symptoms are evaluated, and then mice are necropsied. Plasma samples are collected for evaluation of histamine and IgE concentrations. White blood cells are isolated for PBMC characterization and evaluation of regulatory T cell population expansion using flow cytometry specific for CD4, CD25, Foxp3, Helios, Neuropilin, CD8, CD44, CD62L, IFNgamma, IL-17, and B cell populations, including Bregs and plasma cells using the following markers: IgM, CD5, CD24, CD19, CD19, CD20, CD34, CD38, CD45R, CD78, CD80, and CD138.

[2] = Microbial short chain fatty acids by gas chromatography; format: in vivo, human; conditions: treatment group
From the text: Microbial production of short chain fatty acids (SCFA): SCFA can modulate intestinal inflammation by regulating epithelial barrier function. Microbial short chain fatty acids (SCFA) are extracted by methods previously described and analyzed by gas chromatography HD and found to be elevated in the treatment group

[3] = Metabolomic analysis of infant feces (UPLC-MS/MS); format: in vivo, human
Description: Fecal samples from infants of Example 1 were evaluated as described below to characterize the fecal metabolome and what effects colonization by this organism may have on the infant's metabolism as a whole.
Sample Preparation: Fecal samples were maintained at −80° C. until processed. Samples were prepared using the automated MicroLab STAR® system from Hamilton Company. Several recovery standards were added prior to the first step in the extraction process for QC purposes. To remove protein, dissociate small molecules bound to protein or trapped in the precipitated protein matrix, and to recover chemically diverse metabolites, proteins were precipitated with methanol under vigorous shaking for 2 min (Glen Mills GenoGrinder 2000) followed by centrifugation. The resulting extract was divided into five fractions: two for analysis by two separate reverse phase (RP)/UPLC-MS/MS methods with positive ion mode electrospray ionization (ESI), one for analysis by RP/UPLC-MS/MS with negative ion mode ESI, one for analysis by HILIC/UPLC-MS/MS with negative ion mode ESI, and one sample was reserved for backup. Samples were placed briefly on a TurboVap® (Zymark) to remove the organic solvent. The sample extracts were stored overnight under nitrogen before preparation for analysis.
Preparation of study-tracking replicates. A small aliquot of each sample was pooled to create a study tracking sample, which was then injected periodically throughout the platform run. Variability detected in the study tracking sample among consistently detected biochemicals can be used to calculate an estimate of overall process and platform variability.
Ultrahigh Performance Liquid Chromatography-Tandem Mass Spectroscopy (UPLC-MS/MS): All methods utilized a Waters ACQUITY ultra-performance liquid chromatography (UPLC) and a Thermo Scientific Q-Exactive high resolution/accurate mass spectrometer interfaced with a heated electrospray ionization (HESI-II) source and Orbitrap mass analyzer operated at 35,000 mass resolution. The sample extract was dried then reconstituted in solvents compatible to each of the four methods. Each reconstitution solvent contained a series of standards at fixed concentrations to ensure injection and chromatographic consistency. One aliquot was analyzed using acidic positive ion conditions, chromatographically optimized for more hydrophilic compounds. In this method, the extract was gradient eluted from a C18 column (Waters UPLC BEH C18-2.1×100 mm, 1.7 μm) using water and methanol, containing 0.05% perfluoropentanoic acid (PFPA) and 0.1% formic acid (FA). Another aliquot was also analyzed using acidic positive ion conditions, however it was chromatographically optimized for more hydrophobic compounds. In this method, the extract was gradient eluted from the same afore mentioned C18 column using methanol, acetonitrile, water, 0.05% PFPA and 0.01% FA and was operated at an overall higher organic content. Another aliquot was analyzed using basic negative ion optimized conditions using a separate dedicated C18 column. The basic extracts were gradient eluted from the column using methanol and water, however with 6.5 mM Ammonium Bicarbonate at pH 8. The fourth aliquot was analyzed via negative ionization following elution from a HILIC column (Waters UPLC BEH Amide 2.1×150 mm, 1.7 μm) using a gradient consisting of water and acetonitrile with 10 mM Ammonium Formate, pH 10.8. The MS analysis alternated between MS and data-dependent MS' scans using dynamic exclusion. The scan range varied slighted between methods but covered 70-1000 m/z.
Data Extraction and Compound Identification: Raw data was extracted, peak-identified and QC processed using Proprietary hardware and software. […]

[4] = day 28, fold-change active:control
[5] = intervention/control, outlier removed

## Bifidobacterium longum subsp. infantis EVC001 [B. infantis EVC001]
[1]
  Urine levels of FABPs and α-GST: significantly reduced
Peanut extract allergy; compared to control mice
  Inflammatory responses to the food antigen: reduce
Peanut extract allergy; peanut extract challenge with Cholera toxin
  Anaphylaxis: prevent
[2]
  Microbial short chain fatty acids (SCFA): elevated
[3]; [4]
  creatinine Active/Control: 1.4
  gamma-glutamyl-alpha-lysine Active/Control: 3.3
  gamma-glutamyl-epsilon-lysine Active/Control: 2.4
  gamma-glutamylalanine Active/Control: 5.9
  gamma-glutamylcysteine Active/Control: 44.3
  gamma-glutamylglutamate Active/Control: 3.1
  gamma-glutamylglutamine Active/Control: 1.6
  gamma-glutamylhistidine Active/Control: 10.5
  gamma-glutamylisoleucine* Active/Control: 8.1
  gamma-glutamylleucine Active/Control: 1.6
  gamma-glutamylmethionine Active/Control: 19.3
  gamma-glutamylphenylalanine Active/Control: 4.2
  gamma-glutamylthreonine Active/Control: 7.15
  gamma-glutamyltyrosine Active/Control: 2.8
  gamma-glutamylvaline Active/Control: 3.3
[3]; intervention/control
  Gamma-glutamyl Threonine Int/con: 5.35
  N-acetyl Threonine Int/con: 3.07
  Threonine Int/con: 3.21
[3]; [5]
  Gamma-glutamyl Threonine Int/Con with outlier removed: 7.15
  N-acetyl Threonine Int/Con with outlier removed: 3.67
  Threonine Int/Con with outlier removed: 4.35
[3]; versus control
  Fecal retinol: significantly reduced
